Laboratory results from ChEMBL document CHEMBL4806958, “Anti-cancer/anti-fibrosis compounds” (2020).

Tests used:
[1] = biological target: Casein kinase II subunit alpha (Homo sapiens, UniProt P68400); test: Inhibition of CSNK2A1(unknown origin) using Ser/Thr 11 as substrate incubated for 60 mins in presence of ATP by Z'-LYTE assay
[2] = biological target: Homeodomain-interacting protein kinase 2 (Homo sapiens, UniProt Q9H2X6); test: Inhibition of HIPK2 (unknown origin) using Ser/Thr 09 as substrate incubated for 60 mins in presence of ATP by Z'-Lyte assay
Homeodomain-interacting protein kinase 2, sequence (Q9H2X6 whole entry): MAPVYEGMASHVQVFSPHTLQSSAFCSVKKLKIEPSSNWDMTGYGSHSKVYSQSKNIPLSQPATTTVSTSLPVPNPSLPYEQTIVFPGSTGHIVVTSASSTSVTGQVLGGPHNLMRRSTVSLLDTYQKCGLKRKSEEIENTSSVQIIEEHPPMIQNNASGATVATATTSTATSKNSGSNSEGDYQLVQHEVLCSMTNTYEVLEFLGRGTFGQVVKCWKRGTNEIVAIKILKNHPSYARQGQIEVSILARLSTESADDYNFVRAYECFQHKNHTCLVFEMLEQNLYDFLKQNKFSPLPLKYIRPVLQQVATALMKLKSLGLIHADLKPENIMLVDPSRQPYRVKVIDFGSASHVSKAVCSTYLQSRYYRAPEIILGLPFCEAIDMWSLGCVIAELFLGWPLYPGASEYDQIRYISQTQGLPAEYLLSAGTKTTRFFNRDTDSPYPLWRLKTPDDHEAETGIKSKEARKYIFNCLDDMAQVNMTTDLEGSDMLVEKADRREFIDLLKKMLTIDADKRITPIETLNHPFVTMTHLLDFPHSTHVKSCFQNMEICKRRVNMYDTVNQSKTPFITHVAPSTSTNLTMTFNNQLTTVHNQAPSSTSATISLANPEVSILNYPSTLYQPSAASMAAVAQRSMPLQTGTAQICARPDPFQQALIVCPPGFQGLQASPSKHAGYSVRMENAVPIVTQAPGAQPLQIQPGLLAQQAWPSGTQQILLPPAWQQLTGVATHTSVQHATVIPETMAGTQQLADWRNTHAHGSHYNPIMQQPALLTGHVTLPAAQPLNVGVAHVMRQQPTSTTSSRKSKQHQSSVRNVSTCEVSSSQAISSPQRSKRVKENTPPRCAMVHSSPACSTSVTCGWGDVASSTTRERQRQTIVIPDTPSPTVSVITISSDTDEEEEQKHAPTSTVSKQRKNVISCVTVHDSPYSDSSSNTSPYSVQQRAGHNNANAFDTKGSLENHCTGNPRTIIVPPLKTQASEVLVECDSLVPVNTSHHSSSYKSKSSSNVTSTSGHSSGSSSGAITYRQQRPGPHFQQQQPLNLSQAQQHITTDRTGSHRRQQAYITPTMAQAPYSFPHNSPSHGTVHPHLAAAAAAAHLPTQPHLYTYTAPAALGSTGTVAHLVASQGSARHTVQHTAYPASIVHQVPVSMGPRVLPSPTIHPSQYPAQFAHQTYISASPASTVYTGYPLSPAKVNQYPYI

Casein kinase II subunit alpha, sequence (P68400 whole entry): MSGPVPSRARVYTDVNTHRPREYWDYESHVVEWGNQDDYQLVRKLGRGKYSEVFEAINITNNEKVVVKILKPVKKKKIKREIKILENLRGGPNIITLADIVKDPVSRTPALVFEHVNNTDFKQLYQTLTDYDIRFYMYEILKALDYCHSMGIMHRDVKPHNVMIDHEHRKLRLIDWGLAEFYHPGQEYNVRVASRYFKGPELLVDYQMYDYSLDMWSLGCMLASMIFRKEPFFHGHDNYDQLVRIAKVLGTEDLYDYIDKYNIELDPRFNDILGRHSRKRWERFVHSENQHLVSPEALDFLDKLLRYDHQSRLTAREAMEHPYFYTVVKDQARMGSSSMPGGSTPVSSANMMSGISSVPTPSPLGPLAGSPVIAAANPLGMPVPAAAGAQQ

Compound	IC50 [1] [nM]	IC50 [2] [nM]
O=C(O)c1ccc2c(c1)cc(Br)c1ccncc12	< 300	< 300
O=C(O)c1ccc2c(c1)cc(Nc1ccc(Cl)cc1)c1ccncc12	< 300	
O=C(O)c1ccc2c(c1)cc(Nc1cccc(Cl)c1)c1ccncc12	< 300	
O=C(O)c1ccc2c(c1)cc(NC1CCC1)c1ccncc12	< 300	
O=C(O)c1ccc2c(ccc3ccnc(Cl)c32)c1	< 300	
O=C(O)c1ccc2c(c1)cc(NC1CC1)c1ccncc12	< 300	< 300
O=C(O)c1ccc2c(c1)cc([N+](=O)[O-])c1ccncc12	< 300	
O=C(O)c1ccc2c(c1)cc(Cl)c1ccncc12	< 300	
Nc1nccc2cc(Br)c3cc(C(=O)O)ccc3c12		< 300
Cc1cc2cc(C(=O)O)ccc2c2cnccc12	< 300	
CC[C@H](C)Nc1cc2cc(C(=O)O)ccc2c2cnccc12	< 300	
CC[C@@H](C)Nc1cc2cc(C(=O)O)ccc2c2cnccc12	< 300	< 300
O=C(O)c1ccc2c(c1)cc(-c1cccnc1)c1ccncc12	< 300	
N[C@@H]1CCCN(c2cc3cc(C(=O)O)ccc3c3cnccc23)C1	< 300	> 5000
